Experimental data: BindingDB's records for doi:10.1021/acschembio.6b00962 (University of California Riverside, 2017)
Non-standard residues stand in square brackets, D forms with d. Residues, ends and D or L forms follow the SMILES beside them. ξ: configuration not given here. *: point of attachment. hCys = N[C@@H](CCS)C(=O)O; Dap = NC[C@H](N)C(=O)O; ξDap = NCC(N)C(=O)O; ClAc = O=C(CCl)*

Columns and labels:
Assay in all cases: DELFIA
[1] = biological target: Induced myeloid leukemia cell differentiation protein Mcl-1 (Homo sapiens, UniProt Q07820)
Induced myeloid leukemia cell differentiation protein Mcl-1, sequence (Q07820 whole entry): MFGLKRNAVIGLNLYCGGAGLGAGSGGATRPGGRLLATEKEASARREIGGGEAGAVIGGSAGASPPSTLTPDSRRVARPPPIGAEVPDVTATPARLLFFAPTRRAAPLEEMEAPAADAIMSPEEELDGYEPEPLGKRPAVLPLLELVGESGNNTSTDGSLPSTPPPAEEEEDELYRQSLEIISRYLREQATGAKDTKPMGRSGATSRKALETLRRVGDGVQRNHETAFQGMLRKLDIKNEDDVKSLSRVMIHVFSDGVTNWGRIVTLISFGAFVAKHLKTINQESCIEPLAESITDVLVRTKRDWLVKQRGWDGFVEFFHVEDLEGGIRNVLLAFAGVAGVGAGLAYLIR
Description: (§1) After 1 h of incubation at RT to allow the immunoreaction to complete, a second washing step allowed removal of the unbound protein in complex with Eu antibodies if displaced by a test compound. […] Each well received a final DMSO concentration equal to 1%. Protein, peptide, and antibody solutions were prepared in DELFIA assay buffer (PerkinElmer).

[2] = biological target: Apoptosis regulator Bcl-2 (Homo sapiens, UniProt P10415)
Apoptosis regulator Bcl-2, sequence (P10415 whole entry): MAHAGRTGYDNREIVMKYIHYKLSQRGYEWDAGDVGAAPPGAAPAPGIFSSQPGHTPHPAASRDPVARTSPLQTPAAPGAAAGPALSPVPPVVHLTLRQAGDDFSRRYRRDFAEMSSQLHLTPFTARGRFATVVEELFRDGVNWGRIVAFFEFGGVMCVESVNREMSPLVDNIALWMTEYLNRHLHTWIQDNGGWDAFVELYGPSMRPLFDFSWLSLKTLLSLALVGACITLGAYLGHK
Description: as §1

[3] = biological target: T1, Bcl-2-related protein A1 [1-149] (Human, UniProt Q16548)
T1 construct: 1-149
T1 sequence (Q16548 whole entry): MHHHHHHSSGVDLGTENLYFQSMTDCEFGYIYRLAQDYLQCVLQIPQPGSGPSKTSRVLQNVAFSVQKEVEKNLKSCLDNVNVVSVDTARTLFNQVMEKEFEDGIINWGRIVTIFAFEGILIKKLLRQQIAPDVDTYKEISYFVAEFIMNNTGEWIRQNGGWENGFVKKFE
Description: as §1

[4] = biological target: Isoform Bcl-X(L) of Bcl-2-like protein 1 (Bcl-xL) (Homo sapiens, UniProt Q07817)
Isoform Bcl-X(L) of Bcl-2-like protein 1 (Bcl-xL), sequence (Q07817 whole entry G70A, canonical isoform): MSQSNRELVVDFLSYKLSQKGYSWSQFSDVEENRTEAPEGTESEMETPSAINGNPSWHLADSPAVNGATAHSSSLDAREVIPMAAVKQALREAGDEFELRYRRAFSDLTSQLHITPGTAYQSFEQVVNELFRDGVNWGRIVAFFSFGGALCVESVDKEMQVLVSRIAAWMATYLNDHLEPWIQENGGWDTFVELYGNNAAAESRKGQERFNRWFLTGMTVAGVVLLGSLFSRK
Description: as §1

Row | Molecule | IC50 [1] | Kd ([1]; pH 7.4, 25 °C) | IC50 [2] | IC50 [3] | IC50 [4] | Kd ([3]; pH 7.4, 25 °C) | Kd ([4]; pH 7.4)
1 | CC[C@H](C)[C@H](NC(=O)C(CNC(=O)CCl)NC(C)=O)C(=O)N[C@@H](C)C(=O)N[C@@H](CCC(N)=O)C(=O)N[C@@H](CCC(=O)O)C(=O)N[C@@H](CC(C)C)C(=O)N[C@@H](CCCNC(=N)N)C(=O)N[C@@H](CCCNC(=N)N)C(=O)N[C@H](C(=O)NCC(=O)N[C@@H](CC(=O)O)C(=O)N[C@@H](CCC(=O)O)C(=O)N[C@@H](Cc1ccccc1)C(=O)N[C@@H](CC(N)=O)C(=O)N[C@@H](C)C(=O)N[C@@H](Cc1ccc(O)cc1)C(=O)N[C@@H](Cc1ccc(O)cc1)C(=O)N[C@@H](C)C(=O)N[C@@H](CCCNC(=N)N)C(=O)N[C@@H](CCCNC(=N)N)C(N)=O)[C@@H](C)CC (some centres not stated) [130E7] (Ac-[ξDap](ClAc)IAQELRRIGDEFNAYYARR-NH2) | 23 nM | 2 nM |  |  |  |  | 
2 | C=CCCC[C@](C)(NC(=O)[C@H](CC(=O)O)NC(=O)CNC(=O)[C@@H](NC(=O)[C@](C)(CCCC=C)NC(=O)[C@H](CCCNC(=N)N)NC(=O)[C@H](CC(C)C)NC(=O)[C@H](CCC(=O)O)NC(=O)[C@H](CCC(N)=O)NC(=O)[C@H](C)NC(=O)C(CNC(=O)CCl)NC(C)=O)[C@@H](C)CC)C(=O)N[C@@H](Cc1ccccc1)C(=O)N[C@@H](CC(N)=O)C(=O)N[C@@H](C)C(=O)N[C@@H](Cc1ccc(O)cc1)C(=O)N[C@@H](Cc1ccc(O)cc1)C(=O)N[C@@H](C)C(=O)N[C@@H](CCCNC(=N)N)C(=O)N[C@@H](CCCNC(=N)N)C(N)=O (some centres not stated) [130D11] | 32 nM |  | 199 nM | 13.9 nM | 220 nM |  | 
3 | Ac-CATQLRRFGDKLN-NH2 | > 1000 nM |  | > 1000 nM | 15 nM | > 1000 nM |  | 
4 | Ac-CATQLRRFGDKLNFRQKLLN-NH2 | 228 nM |  | > 1000 nM | 7.5 nM | > 1000 nM |  | 
5 | CC1(C)CCC(CN2CCN(c3ccc(C(=O)NS(=O)(=O)c4ccc(NCC5CCOCC5)c([N+](=O)[O-])c4)c(Oc4cnc5[nH]ccc5c4)c3)CC2)=C(c2ccc(Cl)cc2)C1 | > 1000 nM |  |  | > 1000 nM |  |  | 
6 | CC(=O)N[C@@H](CCS)C(=O)N[C@@H](C)C(=O)N[C@H](C(=O)N[C@@H](CCC(N)=O)C(=O)N[C@@H](CC(C)C)C(=O)N[C@@H](CCCNC(=N)N)C(=O)N[C@@H](CCCNC(=N)N)C(=O)N[C@@H](Cc1ccccc1)C(=O)NCC(=O)N[C@@H](CC(=O)O)C(=O)N[C@@H](CCCCN)C(=O)N[C@@H](CC(C)C)C(=O)N[C@@H](CC(N)=O)C(=O)N[C@@H](Cc1ccccc1)C(=O)N[C@@H](CCCNC(=N)N)C(=O)N[C@@H](CCC(N)=O)C(=O)N[C@@H](CCCCN)C(=O)N[C@@H](CC(C)C)C(=O)N[C@@H](CC(C)C)C(=O)N[C@@H](CC(N)=O)C(N)=O)[C@@H](C)O (Ac-[hCys]ATQLRRFGDKLNFRQKLLN-NH2) | 266 nM |  | > 1000 nM | 83 nM | > 1000 nM |  | 
7 | CC[C@H](C)[C@H](NC(=O)[C@H](CCCCN)NC(=O)[C@H](CCCNC(=N)N)NC(=O)[C@H](CC(C)C)NC(=O)[C@H](CCC(N)=O)NC(=O)[C@H](C)NC(=O)[C@H](C)NC(=O)[C@H](Cc1ccccc1)NC(=O)[C@H](CCC(=O)O)NC(=O)[C@@H]1CCCN1C(=O)[C@@H]1CCCN1C(=O)[C@H](CC(C)C)NC(=O)[C@H](CCC(=O)O)NC(=O)[C@H](C)NC(C)=O)C(=O)NCC(=O)N[C@@H](CC(=O)O)C(=O)N[C@@H](CCCCN)C(=O)N[C@H](C(=O)N[C@@H](Cc1ccc(O)cc1)C(=O)N[C@@H](CS)C(N)=O)C(C)C |  |  | > 1000 nM | > 1000 nM | > 1000 nM |  | 
8 | CC[C@H](C)[C@H](NC(=O)[C@H](CCCNC(=N)N)NC(=O)[C@H](CCCNC(=N)N)NC(=O)[C@H](CC(C)C)NC(=O)[C@H](CCC(N)=O)NC(=O)[C@H](C)NC(=O)[C@H](CS)NC(=O)[C@H](CCC(=O)O)NC(=O)[C@H](CC(=O)O)NC(=O)[C@H](CCCCN)NC(=O)[C@H](CC(C)C)NC(=O)[C@H](CC(=O)O)NC(=O)[C@H](C)NC(=O)[C@@H]1CCCN1C(C)=O)C(=O)NCC(=O)N[C@@H](CC(=O)O)C(=O)N[C@@H](CCCCN)C(=O)N[C@H](C(=O)N[C@@H](CC(N)=O)C(=O)N[C@@H](CC(C)C)C(N)=O)C(C)C |  |  | > 1000 nM | 431 nM | > 1000 nM |  | 
9 | CC[C@H](C)[C@H](NC(=O)[C@H](CCCNC(=N)N)NC(=O)[C@H](CCCNC(=N)N)NC(=O)[C@H](CC(C)C)NC(=O)[C@H](CCC(=O)O)NC(=O)[C@H](CCC(N)=O)NC(=O)[C@H](C)NC(=O)[C@@H](NC(=O)[C@H](CNC(=O)CCl)NC(C)=O)[C@@H](C)CC)C(=O)NCC(=O)N[C@@H](CC(=O)O)C(=O)N[C@@H](CCC(=O)O)C(=O)N[C@@H](Cc1ccccc1)C(=O)N[C@@H](CC(N)=O)C(=O)N[C@@H](C)C(=O)N[C@@H](Cc1ccc(O)cc1)C(=O)N[C@@H](Cc1ccc(O)cc1)C(=O)N[C@@H](C)C(=O)N[C@@H](CCCNC(=N)N)C(=O)N[C@@H](CCCNC(=N)N)C(N)=O [130E7] (Ac-[Dap](ClAc)IAQELRRIGDEFNAYYARR-NH2) |  |  | 27 nM | 8.7 nM | 46.5 nM | 2.6 nM | 25.5 nM
10 | CC(=O)NC(CNC(=O)CCl)C(=O)N[C@@H](C)C(=O)N[C@H](C(=O)N[C@@H](CCC(N)=O)C(=O)N[C@@H](CC(C)C)C(=O)N[C@@H](CCCNC(=N)N)C(=O)N[C@@H](CCCNC(=N)N)C(=O)N[C@@H](Cc1ccccc1)C(=O)NCC(=O)N[C@@H](CC(=O)O)C(=O)N[C@@H](CCCCN)C(=O)N[C@@H](CC(C)C)C(=O)N[C@@H](CC(N)=O)C(=O)N[C@@H](Cc1ccccc1)C(=O)N[C@@H](CCCNC(=N)N)C(=O)N[C@@H](CCC(N)=O)C(=O)N[C@@H](CCCCN)C(=O)N[C@@H](CC(C)C)C(=O)N[C@@H](CC(C)C)C(=O)N[C@@H](CC(N)=O)C(N)=O)[C@@H](C)O (some centres not stated) [λ_hNOXA] (Ac-[ξDap](ClAc)ATQLRRFGDKLNFRQKLLN-NH2) | 233 nM |  |  |  |  |  | 
